# Experimental data as given in patent US10758620B2, “Potentiated antimicrobial agents” (SEPTEOS, priority 2014, dated 2020).
# Where two headings read alike, the source gives them in different places.
# What was measured:
# MSSA 8237 = experiment: Etest, staphylococci MSSA 8237; format: cell-based; settings: MSSA 8237
# Description: (§1) The corresponding tests are made based on the usual MIC test: the Etest® (Biomerieux) strip is deposited onto the surface of a seeded agar medium in which the booster has been incorporated. This test enables solvent effect risks, that is a possible interaction with the solvent used in vitro, to be minimised.
# (§2) The control corresponds to the test made without cineol. A control is made in each solvent tested: distilled water, Tween/water and DMSO.
# (§3) ED control=antibiotic alone in distilled water
# (§4) DMSO control=antibiotic alone in DMSO
# (§5) TE control=antibiotic alone in Tween® 80
# MRSA 10178 = experiment: Etest, staphylococci MRSA 10178; format: cell-based
# Description: as §1, §2, §3, §4, §5
# [1] = tested on: Strain 09003, methicillin resistant S. aureus (MRSA); experiment: Resistance test (resistant mutants), Strain 09003; format: cell-based; settings: Strain 09003, DMSO, 4 times the MIC, 48 h incubation, combinations 64/100
# Experimental: (§6) After 48 h incubation, the presence or absence of colonies likely to be resistant mutants is observed.
# (§7) ED control or DMSO=only distilled water or DMSO is added
# (§8) Ciprofloxacine DMSO: addition of Ciprofloxacine in DMSO
# [2] = tested on: Strain 10168, methicillin resistant S. aureus (MRSA); experiment: Resistance test (resistant mutants), Strain 10168; format: cell-based; settings: Strain 10168, DMSO, 4 times the MIC, 48 h incubation, combinations 64/100
# Experimental: as §6, §7, §8
# Pseudomonas Strain 08132 = experiment: Etest, Pseudomonas Strain 08132; format: cell-based
# Description: as §1, §2, §3, §4, §5
# Pseudomonas Strain 08131 = experiment: Etest, Pseudomonas Strain 08131; format: cell-based; settings: Pseudomonas, STRAIN08131, Strain 08131, read-out: MIC
# Description: as §1, §2, §3, §4, §5
# E. Coli Strain 08138 = experiment: Etest, E. Coli Strain 08138; format: cell-based; settings: Escherichia coli, Strain 08138
# Description: as §1, §2, §3, §4, §5
# E. Coli Strain 8150 = experiment: Etest, E. Coli Strain 8150; format: cell-based; settings: Escherichia coli, Strain 8150
# Description: as §1, §2, §3, §4, §5
# Staphylococcus = experiment: MIC measurement in agar medium (dilution test), Staph; format: cell-based; settings: Staphylococcus, read-out: MIC of the amox alone; staphylococci
# Description: Inhibitory minimum concentration measurement tests are made in a solid agar medium according to international standards in force (CLSI M7-A9 Jan 12 standards): dispersion of the compounds to be tested in a Mueller Hinton gelose. An adaptation relating to the hydrophobicity of compounds and compositions is however necessary to disperse them in the medium: dilution of the compounds in a solvent. The compounds and compositions incorporated in the agar medium can be diluted beforehand in one or more solvents (Tween® 80 diluted with water, Tween® 80 diluted with […], DMSO diluted with water). The strains are deposited onto the agar surface with a steers apparatus. In the examples, different dissolution methods for products are tested in parallel to circumvent the problems of water/solvent distribution coefficient of the molecules (antimicrobial and potentiator) whereas the bacteria grow only in the aqueous phase. The technical requirement will not intervene in in vivo tests. The same dilution methods can be implemented in a liquid medium (microplates and tubes). The same methodology is implemented with fungi. […] MIC measurement: the minimum inhibitory concentration measurement tests are made in an agar solid medium according to international standards in force (CLSI standards), according to the previously defined protocol. […] The booster contribution as compared with the MIC of the antibiotic alone is expressed in a (MIC ATB)/(MIC ATB+booster) ratio. Thereby, gains are defined: […]
# [3] = orally, rats; cited from earlier work
# [4] = orally, cats; cited from earlier work
# candidas = experiment: MIC measurement (dilution test) on yeast strains; format: cell-based, Candida; settings: Candida; read-out: MIC of sertaconazole alone
# Description: Inhibitory minimum concentration measurement tests are made in a solid agar medium according to international standards in force (CLSI M7-A9 Jan 12 standards): dispersion of the compounds to be tested in a Mueller Hinton gelose. An adaptation relating to the hydrophobicity of compounds and compositions is however necessary to disperse them in the medium: dilution of the compounds in a solvent. The compounds and compositions incorporated in the agar medium can be diluted beforehand in one or more solvents (Tween® 80 diluted with water, Tween® 80 diluted with […], DMSO diluted with water). The strains are deposited onto the agar surface with a steers apparatus. In the examples, different dissolution methods for products are tested in parallel to circumvent the problems of water/solvent distribution coefficient of the molecules (antimicrobial and potentiator) whereas the bacteria grow only in the aqueous phase. The technical requirement will not intervene in in vivo tests. The same dilution methods can be implemented in a liquid medium (microplates and tubes). The same methodology is implemented with fungi. […] MIC measurement: the minimum inhibitory concentration measurement tests are made in an agar solid medium according to international standards in force (CLSI standards), according to the previously defined protocol. […] The booster contribution as compared with the MIC of the antibiotic alone is expressed in a (MIC ATB)/(MIC ATB+booster) ratio. Thereby, gains are defined: […] The yeast strains tested (n=33) belong to the […] albicans, Candida tropicalis, Candida krusei, Candida parapsilosis, Candida glabrata species.
# [5] = Staphylococcus aureus, MSSA, DMSO control = antibiotic alone in DMSO, read-out: MIC
# [6] = Staphylococcus aureus, MSSA, ED control = antibiotic alone in distilled water, read-out: MIC
# [7] = Staphylococcus aureus, MSSA, Tween water control = antibiotic alone, read-out: MIC
# [8] = DMSO control = antibiotic alone in DMSO
# [9] = Tween water control = antibiotic alone
# [10] = ED control = antibiotic alone in distilled water
smiles,measurement,setting,value
"CO[C@@]1(NC(=O)Cc2cccs2)C(=O)N2C(C(=O)O)=C(COC(N)=O)CS[C@@H]21 [Cefoxitine, reference compound]",MIC,MSSA 8237; [5],6 µg/mL
same,MIC,MSSA 8237; [6],6 µg/mL
same,MIC,MSSA 8237; [7],6 µg/mL
same,MIC,"MRSA 10178; Staphylococcus aureus, MRSA, MRSA 10178, DMSO control = antibiotic alone in DMSO, read-out: MIC",6 µg/mL
same,MIC,"MRSA 10178; Staphylococcus aureus, MRSA, MRSA 10178, ED control = antibiotic alone in distilled water, read-out: MIC",6 µg/mL
same,MIC,"MRSA 10178; Staphylococcus aureus, MRSA, MRSA 10178, Tween water control = antibiotic alone, read-out: MIC",4 µg/mL
"O=C(O)c1cn(C2CC2)c2cc(N3CCNCC3)c(F)cc2c1=O [Ciprofloxacine, ciprofloxacine, reference compound]",colonies likely to be resistant mutants,[1],numerous
same,colonies likely to be resistant mutants,[1]; listed as ciprofloxacine,many mutants
same,colonies likely to be resistant mutants,[2],invaded
same,colonies likely to be resistant mutants,[2]; listed as ciprofloxacine,many mutants
"C[C@@H](O)[C@H]1C(=O)N2C(C(=O)O)=C(S[C@@H]3CN[C@H](C(=O)N(C)C)C3)[C@H](C)[C@H]12 [Meropenem, reference compound]",MIC,Pseudomonas Strain 08132; [8],12 µg/mL
same,MIC,"Pseudomonas Strain 08132; Pseudomonas, STRAIN08132, ED control = antibiotic alone in distilled water, read-out: MIC",12 µg/mL
same,MIC,Pseudomonas Strain 08132; [9],12 µg/mL
same,MIC,MSSA 8237; [5],0.25 µg/mL
same,MIC,MSSA 8237; [6],0.19 µg/mL
same,MIC,MSSA 8237; [7],0.25 µg/mL
same,MIC,Pseudomonas Strain 08131; [8],2 µg/mL
same,MIC,Pseudomonas Strain 08131; [10],1.5 µg/mL
same,MIC,Pseudomonas Strain 08131; [9],2 µg/mL
"CC1(C)S[C@@H]2[C@H](NC(=O)Cc3ccccc3)C(=O)N2[C@H]1C(=O)O [Penicillin G, reference compound]",MIC,MSSA 8237; [8],1.5 µg/mL
same,MIC,MSSA 8237; [10],1 µg/mL
same,MIC,MSSA 8237; [9],0.5 µg/mL
"CN(C)c1cc(NC(=O)CNC(C)(C)C)c(O)c2c1C[C@H]1C[C@H]3[C@H](N(C)C)C(O)=C(C(N)=O)C(=O)[C@@]3(O)C(O)=C1C2=O [Tigecycline, reference compound]",MIC,E. Coli Strain 08138; [8],0.38 µg/mL
same,MIC,E. Coli Strain 08138; [10],0.38 µg/mL
same,MIC,E. Coli Strain 08138; [9],0.38 µg/mL
same,MIC,"MRSA 10178; MRSA 10178, ED control = antibiotic alone in distilled water",0.125 µg/mL
same,MIC,"MRSA 10178; MRSA 10178, Tween water control = antibiotic alone",0.125 µg/mL
same,MIC,"MRSA 10178; Staphylococcus aureus, MRSA",0.125 µg/mL
same,MIC,E. Coli Strain 8150; [8],0.19 µg/mL
same,MIC,E. Coli Strain 8150; [10],0.125 µg/mL
same,MIC,E. Coli Strain 8150; [9],0.125 µg/mL
"CC1(C)S[C@@H]2[C@H](NC(=O)[C@H](N)c3ccc(O)cc3)C(=O)N2[C@H]1C(=O)O [amox, amoxicillin, reference compound]",MIC,Staphylococcus,0.25 to 32 µg/mL
Cc1ccc(C(C)C)cc1O [carvacrol],lowest lethal dose,[3],100 mg/kg
same,lowest lethal dose,[4],100 mg/kg
"Clc1ccc(C(Cn2ccnc2)OCc2csc3c(Cl)cccc23)c(Cl)c1 (centres unmarked) [sertaconazole, reference compound]",MIC,candidas,0.06 to 16 µg/mL
